In PubChem BioAssay AID248 (DTP/NCI, 2004):
Several values for one entry are separate records, joined by “and”; a condition that tells them apart may be missing. Equal values may be shown once. Toxic doses and inconclusive results are not listed. No stated cut-off is given here; in the data, active means T/C of 150% or more; inactive means T/C below 125%.

Test system: L1210 leukemia ip in BDF1 mice, survival T/C
Experiment: NCI In Vivo Anticancer Drug Screen. Data for tumor model L1210 Leukemia (intraperitoneal) in B6D2F1 (BDF1) mice
Conditions: endpoint: mean survival time, higher = longer survival
Summary of the method: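 Mice bearing the transplanted tumor received compound or vehicle. Survival of the treated group was divided by that of the vehicle-treated control group to give the ratio.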

[1] = dose: 100.0 mg/kg/injection, schedule: Q04DX003 (ip), vehicle: saline
[2] = dose: 200.0 mg/kg/injection, schedule: Q04DX003 (ip), vehicle: saline
[3] = dose: 400.0 mg/kg/injection, schedule: Q04DX003 (ip), vehicle: saline
[4] = dose: 50.0 mg/kg/injection, schedule: Q01DX001 (ip), vehicle: carboxymethylcellulose (CMC)
[5] = dose: 100.0 mg/kg/injection, schedule: Q01DX001 (ip), vehicle: carboxymethylcellulose (CMC)
[6] = dose: 200.0 mg/kg/injection, schedule: Q01DX001 (ip), vehicle: carboxymethylcellulose (CMC)
[7] = dose: 400.0 mg/kg/injection, schedule: Q01DX001 (ip), vehicle: carboxymethylcellulose (CMC)
[8] = dose: 100.0 mg/kg/injection, schedule: Q01DX001 (ip), vehicle: saline
[9] = dose: 200.0 mg/kg/injection, schedule: Q01DX001 (ip), vehicle: saline
[10] = dose: 400.0 mg/kg/injection, schedule: Q01DX001 (ip), vehicle: saline
[11] = dose: 100.0 mg/kg/injection, schedule: Q04DX003 (ip), vehicle: saline with Tween-80
[12] = dose: 200.0 mg/kg/injection, schedule: Q04DX003 (ip), vehicle: saline with Tween-80
[13] = dose: 400.0 mg/kg/injection, schedule: Q04DX003 (ip), vehicle: saline with Tween-80
[14] = dose: 100.0 mg/kg/injection, schedule: Q01DX009 (ip), vehicle: saline with Tween-80
[15] = dose: 200.0 mg/kg/injection, schedule: Q01DX009 (ip), vehicle: saline with Tween-80
[16] = dose: 100.0 mg/kg/injection, schedule: Q01DX009 (ip), vehicle: saline
[17] = dose: 200.0 mg/kg/injection, schedule: Q01DX009 (ip), vehicle: saline
[18] = dose: 400.0 mg/kg/injection, schedule: Q01DX009 (ip), vehicle: saline

Measured: T/C

CCN(CC)CCOc1ccc(/C(=C(\Cl)c2ccccc2)c2ccccc2)cc1
inactive: dose: 6.25 mg/kg/injection, schedule: Q04DX002 (ip), vehicle: saline 118 % of control | dose: 12.5 mg/kg/injection, schedule: Q04DX002 (ip), vehicle: saline 118 % of control | dose: 25.0 mg/kg/injection, schedule: Q04DX002 (ip), vehicle: saline 124 % of control | dose: 50.0 mg/kg/injection, schedule: Q04DX002 (ip), vehicle: saline 121 % of control and 124 % of control | dose: 100.0 mg/kg/injection, schedule: Q04DX002 (ip), vehicle: saline 96 % of control

O=C1CSC(=S)N1c1ccc2c(c1)OCO2
inactive: [1] 94 % of control | [2] 90 % of control | [3] 95 % of control

Oc1ccc2ccccc2c1/C=N/N=c1\[nH][nH]/c(=N\N=C\c2c(O)ccc3ccccc23)c2ccccc12
inactive: [4] 95 % of control | [5] 93 % of control | [6] 98 % of control | [7] 87 % of control

NNc1cc(=O)n2ccccc2n1
inactive: [5] 98 % of control | [6] 98 % of control | [7] 101 % of control

COc1ccc(C(C)=O)c(O)c1OC
inactive: [8] 101 % of control | [9] 101 % of control | [10] 98 % of control

COc1cc(/C=N/Nc2ccc([N+](=O)[O-])cc2)cc(OC)c1OC
inactive: [11] 86 % of control | [12] 89 % of control | [13] 86 % of control

O=C(c1ccc(O)cc1O)c1ccc(O)cc1O
inactive: dose: 50.0 mg/kg/injection, schedule: Q04DX002 (ip), vehicle: gum acacia 114 % of control | dose: 100.0 mg/kg/injection, schedule: Q04DX002 (ip), vehicle: gum acacia 104 % of control | dose: 200.0 mg/kg/injection, schedule: Q04DX002 (ip), vehicle: gum acacia 86 % of control

O=C1C2C3CC(c4ccccc43)C2N1S(=O)(=O)Cl (stereo not given)
inactive: dose: 100.0 mg/kg/injection, schedule: Q04DX002 (ip), vehicle: Klucel (hydroxypropylcellulose) (HPC) 105 % of control | dose: 200.0 mg/kg/injection, schedule: Q04DX002 (ip), vehicle: Klucel (hydroxypropylcellulose) (HPC) 105 % of control | dose: 400.0 mg/kg/injection, schedule: Q04DX002 (ip), vehicle: Klucel (hydroxypropylcellulose) (HPC) 105 % of control

Cc1ccc(S(=O)(=O)Nc2ccccc2-c2nc3ccc([N+](=O)[O-])cc3c(=O)o2)cc1
inactive: [14] 104 % of control | [15] 96 % of control

COc1ccc(/C=C\C(=O)NCCCCNC(=O)/C=C/c2ccc(OC)cc2)cc1
inactive: [8] 101 % of control | [9] 88 % of control

N#C/C(=N\O)C(N)=O
inactive: [8] 102 % of control and 103 % of control | [9] 98 % of control and 107 % of control | [10] 93 % of control and 107 % of control

O=C(COc1ccc(Cl)c(Cl)c1)Nc1ccc[n+](Cc2ccc(Cl)cc2S(=O)(=O)F)c1
inactive: [11] 97 % of control | [12] 94 % of control | [13] 101 % of control

CC1(/C=N/Nc2nnc(N/N=C/C3(C)CCC=CO3)c3ccccc23)CCC=CO1 (stereo not given)
inactive: [4] 106 % of control | [5] 104 % of control | [6] 87 % of control

CC(=O)OCc1cccnc1
inactive: [11] 95 % of control | [12] 94 % of control | [13] 97 % of control

[Cl][Rh][Cl].c1cn[nH]c1.c1cn[nH]c1.c1cn[nH]c1.c1cn[nH]c1
inactive: dose: 12.5 mg/kg/injection, schedule: Q01DX009 (ip), vehicle: Klucel (hydroxypropylcellulose) (HPC) 98 % of control | dose: 12.5 mg/kg/injection, schedule: Q04DX003 (ip), vehicle: Klucel (hydroxypropylcellulose) (HPC) 90 % of control | dose: 25.0 mg/kg/injection, schedule: Q01DX009 (ip), vehicle: Klucel (hydroxypropylcellulose) (HPC) 89 % of control | dose: 25.0 mg/kg/injection, schedule: Q04DX003 (ip), vehicle: Klucel (hydroxypropylcellulose) (HPC) 95 % of control | dose: 50.0 mg/kg/injection, schedule: Q04DX003 (ip), vehicle: Klucel (hydroxypropylcellulose) (HPC) 102 % of control

Cc1cccc(C)c1NC(=O)c1ccccc1Cl
inactive: [14] 104 % of control | [15] 97 % of control | dose: 400.0 mg/kg/injection, schedule: Q01DX009 (ip), vehicle: saline with Tween-80 104 % of control

C#CCCCCC#CCCCCNC(=O)NCCCCC#CCCCCC#C
inactive: [1] 93 % of control | [2] 90 % of control | [3] 87 % of control

Oc1ccc(Cl)cc1/C=N/N1CCN(/N=C/c2cc(Cl)ccc2O)CC1
inactive: [8] 90 % of control | [9] 90 % of control | [10] 90 % of control

CC(=NC(Cc1ccccc1)C(=O)O)NC(Cc1ccccc1)C(=O)O (stereo not given)
inactive: [16] 106 % of control | [17] 101 % of control | [18] 100 % of control

C/C(=C/C(=O)O)C(=O)Nc1cccc2c(NC(=O)/C(C)=C/C(=O)O)cccc12
inactive: [5] 95 % of control | [6] 96 % of control | [7] 96 % of control

CCOC(=O)C1CC(=O)NC(N)=N1 (stereo not given)
inactive: dose: 100.0 mg/kg/injection, schedule: Q01DX Z (ip), vehicle: saline 95 % of control | dose: 200.0 mg/kg/injection, schedule: Q01DX Z (ip), vehicle: saline 100 % of control

Cc1ccc(-c2nc(N)[nH]c(=O)c2CCCN(c2ccccc2)S(=O)(=O)c2ccc(C)cc2)cc1
inactive: dose: 100.0 mg/kg/injection, schedule: Q04DX003 (ip), vehicle: Klucel (hydroxypropylcellulose) (HPC) 102 % of control | dose: 200.0 mg/kg/injection, schedule: Q04DX003 (ip), vehicle: Klucel (hydroxypropylcellulose) (HPC) 101 % of control | dose: 400.0 mg/kg/injection, schedule: Q04DX003 (ip), vehicle: Klucel (hydroxypropylcellulose) (HPC) 102 % of control

O=S(O)O
inactive: [8] 95 % of control | [16] 103 % of control | [9] 97 % of control | [17] 97 % of control | [10] 103 % of control | [18] 100 % of control

CCCCCCCCCCCCCCCCCC(=O)OCCOCCOCCOCCOCCOCCOCCOCCOCCO
inactive: [8] 100 % of control | [9] 94 % of control | [10] 97 % of control

COc1cc(NC(C)=O)ccn1
inactive: dose: 100.0 mg/kg/injection, schedule: Q04DX003 (ip), vehicle: acetone 89 % of control | dose: 200.0 mg/kg/injection, schedule: Q04DX003 (ip), vehicle: acetone 100 % of control | dose: 400.0 mg/kg/injection, schedule: Q04DX003 (ip), vehicle: acetone 110 % of control

Cc1cc[n+](CCc2ccccc2)cc1
inactive: dose: 12.5 mg/kg/injection, schedule: Q01DX009 (ip), vehicle: carboxymethylcellulose (CMC) 97 % of control | dose: 25.0 mg/kg/injection, schedule: Q01DX009 (ip), vehicle: carboxymethylcellulose (CMC) 97 % of control | dose: 50.0 mg/kg/injection, schedule: Q01DX009 (ip), vehicle: carboxymethylcellulose (CMC) 105 % of control | dose: 50.0 mg/kg/injection, schedule: Q04DX003 (ip), vehicle: saline 100 % of control | dose: 75.0 mg/kg/injection, schedule: Q01DX001 (ip), vehicle: carboxymethylcellulose (CMC) 108 % of control | dose: 75.0 mg/kg/injection, schedule: Q01DX001 (ip), vehicle: other 104 % of control | [1] 92 % of control and 100 % of control | dose: 150.0 mg/kg/injection, schedule: Q01DX001 (ip), vehicle: carboxymethylcellulose (CMC) 115 % of control | dose: 150.0 mg/kg/injection, schedule: Q01DX001 (ip), vehicle: other 104 % of control | dose: 300.0 mg/kg/injection, schedule: Q01DX001 (ip), vehicle: other 105 % of control
